The record followed here is patent publication US11517581B2, “Zika virus protease inhibitors and methods of use thereof” (priority 2017, dated 2022).

One assay concerns ZIKV. Kind of assay: Time-of-drug-addition assay in Vero cells. It is filed as cell-based, Zika virus. As to the method:
Briefly, Vero cells were seeded in 24-well plates (2×10^5 cells/well). The cells were inoculated with ZIKV (MOI=2) and then incubated for 1 h for virus internalization. The viral inoculum was then removed and the cells were washed twice with PBS. […] At 18 hpi, the cell culture supernatant of each time point experiment was collected for viral load measurement using qRT-PCR.

Assay [1] relates to ZIKV (Puerto Rico strain PRVABC59) in BALB/c mice. Briefly: In vivo treatment of dexamethasone-immunosuppressed mice with disseminated ZIKV infection. The arrangement: species or system mouse (BALB/c); Zika virus. Conditions: 100 mg/kg q12 h sc.
Experimental: Phosphate-buffered saline (PBS) was used to dilute the virus stocks to the desired concentration, and inocula were back-titrated to verify the dose given. On the day of virus inoculation, a dose of the virus equivalent to 6×10^6 TCID50 (3.24×10^6 plaque forming units) in 2000 of PBS was inoculated via the intraperitoneal route into mice under ketamine (100 mg/kg) and xylazine (10 mg/kg) anesthesia. Mice in the negative-control groups were injected with the same volume of PBS. Mice were monitored three times each day for clinical signs of disease and a numerical score was assigned at each observation as previously described (Chan et al., 2016c). Three mice per group were sacrificed at 5 dpi for virological, histological, and immunohistochemistry analyses. The remaining mice were sacrificed at 14 dpi or euthanized when there was ≥20% weight loss or ≥10% weight loss with ≥1 clinical sign. Samples of major organs were collected at necropsy for virological, histological, and immunohistochemical analyzes as we previously described (Chan et al., 2016c. Chan et al., 2017b). Blood samples were also collected for RNA extraction and qRT-PCR analysis.
For immunohistochemical analysis, each organ was entirely embedded in one paraffin block, and one full-face paraffin section at the maximum diameter of each organ was examined per block.
In assay [2] the test system is ZIKV (Puerto Rico strain PRVABC59). Briefly: Viral load reduction assay (qRT-PCR) in Vero cells. It is filed as cell-based, Zika virus.
Experimental: Viral load reduction assay and plaque reduction assay was performed for the evaluation of antiviral activity. Briefly, ZIKV-infected Vero cells (MOI=0.05) were treated with different concentrations of drugs or dimethyl sulfoxide (DMSO) control, cell culture supernatants (Vero and Huh-7) were collected at 48 hours post-infection, followed by total nucleic acid extraction and quantitative reverse transcription-PCR (qRT-PCR) as previously described with modifications (Chan et al., 2013; Chan et al., 2016b; Chan et al., 2017a). The IC50 was calculated using Sigma plot (SPSS) in an Excel add-in ED50V10. The viral load reduction assay experiments were performed in triplicate and repeated twice for confirmation.
Another assay addresses ZIKV NS2B-NS3 protease (Zika virus, UniProt A0A024B7W1, DEL1468-1502). Briefly: Enzyme kinetic experiments, mode of protease inhibition. In kind it is biochemical. The settings on record: 5 nM protease, substrate 0-100 μM, drug 0-1000 μg/ml; global R^2=0.99. Here is the method:
Hydrogen bonds and hydrophobic contact areas are represented by dashed lines and the two brackets, respectively. The main interacting residues are labeled. The dashed lines represent bonds between hydrogen and acceptor atoms that are involved. […] In the assay, concentration of ZIKV NS2B-NS3 protease was fixed as 5 nM, while different concentrations of substrate (100, 50, 25, 12.5, 6.25, 3.125 and 0 μM) were added to plot the enzyme kinetic curves. Four concentrations of the drug (1000, 250, 62.5 and 0 μg/ml) were tested individually against the different concentrations of substrate. The experiments were repeated twice for confirmation. The data were analyzed for mode of inhibition by GraphPad Prism 6 in the module of enzyme kinetics. R^2>0.95 was considered as statistically significant.
To explore the mode of protease inhibition, enzyme kinetic experiments were performed in the presence or absence of the drug.

Values after ≈ are worked out from the molar mass of the structure shown. A value given as a limit tells only on which side of the number the result lay.

Chain of ZIKV NS2B-NS3 protease (A0A024B7W1 1502-1672, added parts left off, stated change not applied): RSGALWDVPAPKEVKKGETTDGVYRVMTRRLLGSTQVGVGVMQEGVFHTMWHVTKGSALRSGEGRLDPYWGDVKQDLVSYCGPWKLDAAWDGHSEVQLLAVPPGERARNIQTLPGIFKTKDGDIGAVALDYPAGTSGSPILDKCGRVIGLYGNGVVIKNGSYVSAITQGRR

As to `CO[C@@H]1[C@@H](OC(N)=O)[C@@H](O)[C@H](Oc2ccc3c(O)c(NC(=O)c4ccc(O)c(CC=C(C)C)c4)c(=O)oc3c2C)OC1(C)C` [Novobiocin], the “Viral loads at 18 hpi, drug added during virus replication stage” value with ZIKV (100 μg/ml added at 0, 3, 6, 9, or 12 hpi, MOI 2, P<0.05) is given as “significantly reduced”. Also, the “Inhibitory activity, drug added at adsorption or release stage” value in the assay with ZIKV (100 μg/ml at 0-1 hpi or at 14 hpi) is recorded as “No significant inhibitory activity”. For the same molecule, the “ZIKV attachment, cells pretreated with drug” value with ZIKV (100 μg/ml, −1 to 0 hpi) is listed as “not affected”. The “ZIKV NS1 antigen expression in organ tissues (brain, testis, kidney)” value in assay [1] (5 dpi) is “minimal ZIKV NS1 antigen expression”. For the same molecule, in assay [1] (ZIKV-inoculated and mock-infected mice with novobiocin), the “Inflammatory infiltrate in brain, testis and kidney” value is “no or mild inflammatory infiltrate”. Besides, the IC50 in assay [2] (Zika virus, Vero, 48 h, read-out: IC50, viral load reduction assay) turned out to be 26.1 ± 0.33 µg/mL (≈ 42.6 µM). Besides, in assay [2] (viral load reduction assay), the “Concentration at which mean virus titer was significantly reduced (P<0.05)” value was not below 25.00 µg/mL. In addition, the “Mode of protease inhibition” value at ZIKV NS2B-NS3 protease was “competitive”.
